pEC50: −log10 of the molar value. Where two headings read alike, the source gives them in different places. Numbered stars: 1 amine (or outer) side, 2 acyl side, 3 side chain; on linkers, the order of the positions; unused ones are H or OH. Square brackets hold non-standard residues; d marks the D form. Side chains are listed from the residue outwards. Peptide text beside a SMILES is read from it. * marks the point of attachment. C18 diacid = O=C(O)CCCCCCCCCCCCCCCCC(=O)*; γGlu = O=C(O)[C@H](CCC(=O)[*:2])N[*:1]; Palmitoyl = CCCCCCCCCCCCCCCC(=O)*; αMeF = C[C@](N)(Cc1ccccc1)C(=O)O; αMeK = C[C@](N)(CCCCN)C(=O)O; Lauroyl = CCCCCCCCCCCC(=O)*; αMeS = C[C@](N)(CO)C(=O)O; AEEA = NCCOCCOCC(=O)O; Aib = CC(C)(N)C(=O)O
Target: T1, human GLP-1 receptor (GLP-1R) (Homo sapiens, UniProt P43220)
T1 construct: expressed in transfected cells; host or cells: HEK293 cells or CHO cells
Assay: cAMP assay, human GLP-1R cells
Format: cell-based
Conditions: for EC50: mean of n1 and n2; for pEC50: second determination (n2), read-out: Primary assay EC50 GLP-1R n2
Summary of the method: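 Peptide-stimulated cAMP measured by two-step HTRF after a 30 min room-temperature incubation with receptor-expressing cells (hGLP-1R, hGIPR at 1×10^5 cells/ml; hGCGR at 2×10^5 cells/ml). Duplicate dilutions; EC50 from 4-parameter logistic fit of % Delta F.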

[1] = cAMP activity, read-out: Mean pM GLP-1R

T1 sequence (P43220 24-463): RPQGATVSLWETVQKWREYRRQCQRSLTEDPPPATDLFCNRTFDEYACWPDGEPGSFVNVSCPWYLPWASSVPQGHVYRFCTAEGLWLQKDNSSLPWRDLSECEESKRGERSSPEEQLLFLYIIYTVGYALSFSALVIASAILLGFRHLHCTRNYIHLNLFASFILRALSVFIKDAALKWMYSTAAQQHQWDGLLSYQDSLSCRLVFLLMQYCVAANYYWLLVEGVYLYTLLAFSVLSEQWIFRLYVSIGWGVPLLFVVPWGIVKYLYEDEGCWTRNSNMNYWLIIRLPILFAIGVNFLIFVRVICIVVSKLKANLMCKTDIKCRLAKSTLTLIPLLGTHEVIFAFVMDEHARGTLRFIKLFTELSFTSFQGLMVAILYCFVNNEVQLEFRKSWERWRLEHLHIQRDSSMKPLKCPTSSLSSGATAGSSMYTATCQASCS

Structure (SMILES)	EC50 [1] [pM]	pEC50 (cAMP activity)	EC50 (Table 11, tris-lipidated peptides, read-out: Primary assay EC50 Mean pM GLP-1R) [pM]
CC[C@H](C)[C@H](NC(=O)[C@](C)(Cc1ccccc1)NC(=O)[C@H](CCC(=O)O)NC(=O)[C@H](CCCCNC(=O)CC[C@H](NC(=O)CC[C@H](NC(=O)CCCCCCCCCCCCCCCCC(=O)O)C(=O)O)C(=O)O)NC(=O)[C@H](C)NC(=O)[C@H](C)NC(=O)[C@H](CCC(=O)O)NC(=O)CNC(=O)[C@H](CCC(=O)O)NC(=O)[C@H](CC(C)C)NC(=O)[C@](C)(Cc1ccccc1)NC(=O)[C@H](CO)NC(=O)[C@](C)(CO)NC(=O)[C@@H](NC(=O)[C@H](CC(=O)O)NC(=O)[C@H](CO)NC(=O)[C@@H](NC(=O)[C@](C)(Cc1ccccc1)NC(=O)[C@H](CO)NC(=O)CNC(=O)[C@H](CCC(=O)O)NC(=O)C(C)(C)NC(=O)[C@@H](N)Cc1c[nH]cn1)[C@@H](C)O)C(C)C)C(=O)N[C@@H](C)C(=O)N[C@@](C)(Cc1ccccc1)C(=O)N[C@H](C(=O)N[C@H](C(=O)N[C@@](C)(CCCCN)C(=O)NCC(=O)NCC(N)=O)C(C)C)C(C)C [compound 156]	105	–	–
CC[C@H](C)[C@H](NC(=O)[C@](C)(Cc1ccccc1)NC(=O)[C@H](CCC(=O)O)NC(=O)[C@](C)(CCCCN)NC(=O)[C@H](C)NC(=O)[C@H](C)NC(=O)[C@H](CCC(=O)O)NC(=O)CNC(=O)[C@H](CCC(=O)O)NC(=O)[C@H](CC(C)C)NC(=O)[C@](C)(Cc1ccccc1)NC(=O)[C@H](CO)NC(=O)[C@](C)(CO)NC(=O)[C@@H](NC(=O)[C@H](CC(=O)O)NC(=O)[C@@H](NC(=O)[C@@H](NC(=O)[C@](C)(Cc1ccccc1)NC(=O)[C@H](CO)NC(=O)CNC(=O)[C@H](CCC(=O)O)NC(=O)C(C)(C)NC(=O)[C@@H](N)Cc1c[nH]cn1)[C@@H](C)O)[C@@H](C)O)C(C)C)C(=O)N[C@@H](C)C(=O)N[C@@](C)(Cc1ccccc1)C(=O)N[C@H](C(=O)N[C@H](C(=O)N[C@@](C)(CCCCN)C(=O)NCC(=O)NCC(N)=O)C(C)C)C(C)C [compound 29] (H-H[Aib]EGS[αMeF]TTDV[αMeS]S[αMeF]LEGEAA[αMeK]E[αMeF]IA[αMeF]VV[αMeK]GG-NH2)	801	–	–
CCCCCCCCCCCC(=O)N[C@@H](CCC(=O)NCCOCCOCC(=O)NCCOCCOCC(=O)NCCCC[C@H](NC(=O)[C@H](CC(=O)O)NC(=O)[C@H](CO)NC(=O)[C@@H](NC(=O)[C@](C)(Cc1ccccc1)NC(=O)[C@H](CO)NC(=O)CNC(=O)[C@H](CCC(=O)O)NC(=O)C(C)(C)NC(=O)[C@@H](N)Cc1c[nH]cn1)[C@@H](C)O)C(=O)N[C@@H](CO)C(=O)N[C@@H](CO)C(=O)N[C@@H](Cc1ccc(O)cc1)C(=O)N[C@@H](CC(C)C)C(=O)N[C@@H](CCC(=O)O)C(=O)NCC(=O)N[C@@H](CCC(=O)O)C(=O)N[C@@H](C)C(=O)N[C@@H](C)C(=O)N[C@@](C)(CCCCN)C(=O)N[C@@H](CCCCNC(=O)COCCOCCNC(=O)COCCOCCNC(=O)CC[C@H](NC(=O)CCCCCCCCCCC)C(=O)O)C(=O)N[C@@H](Cc1ccccc1)C(=O)N[C@H](C(=O)N[C@@H](C)C(=O)N[C@@H](Cc1ccccc1)C(=O)N[C@@H](CCCCNC(=O)COCCOCCNC(=O)COCCOCCNC(=O)CC[C@H](NC(=O)CCCCCCCCCCC)C(=O)O)C(=O)N[C@H](C(=O)N[C@@H](CCC(=O)O)C(=O)NCC(=O)NCC(N)=O)C(C)C)[C@@H](C)CC)C(=O)O [compound 474] (H-H[Aib]EGS[αMeF]TSDK([AEEA-AEEA-γGlu-Lauroyl])SSYLEGEAA[αMeK]K([AEEA-AEEA-γGlu-Lauroyl])FIAFK([AEEA-AEEA-γGlu-Lauroyl])VEGG-NH2)	–	–	290
CC[C@H](C)[C@H](NC(=O)[C@](C)(Cc1ccccc1)NC(=O)[C@H](CCC(=O)O)NC(=O)[C@H](CCCCNC(=O)COCCOCCNC(=O)COCCOCCNC(=O)CCCCCCCCCCCCCCCCC(=O)O)NC(=O)[C@H](C)NC(=O)[C@H](C)NC(=O)[C@H](CCC(=O)O)NC(=O)CNC(=O)[C@H](CCC(=O)O)NC(=O)[C@H](CC(C)C)NC(=O)[C@](C)(Cc1ccccc1)NC(=O)[C@H](CO)NC(=O)[C@](C)(CO)NC(=O)[C@@H](NC(=O)[C@H](CC(=O)O)NC(=O)[C@H](CO)NC(=O)[C@@H](NC(=O)[C@](C)(Cc1ccccc1)NC(=O)[C@H](CO)NC(=O)CNC(=O)[C@H](CCC(=O)O)NC(=O)C(C)(C)NC(=O)[C@@H](N)Cc1c[nH]cn1)[C@@H](C)O)C(C)C)C(=O)N[C@@H](C)C(=O)N[C@@](C)(Cc1ccccc1)C(=O)N[C@H](C(=O)N[C@H](C(=O)N[C@@](C)(CCCCN)C(=O)NCC(=O)NCC(N)=O)C(C)C)C(C)C [compound 162]	54	10.26	–
CC[C@H](C)[C@H](NC(=O)[C@](C)(Cc1ccccc1)NC(=O)[C@H](CCC(=O)O)NC(=O)[C@](C)(CCCCN)NC(=O)[C@H](C)NC(=O)[C@H](C)NC(=O)[C@H](CCC(=O)O)NC(=O)CNC(=O)[C@H](CCC(=O)O)NC(=O)[C@@H](NC(=O)[C@](C)(Cc1ccccc1)NC(=O)[C@H](CO)NC(=O)[C@H](CO)NC(=O)[C@@H](NC(=O)[C@H](CC(=O)O)NC(=O)[C@H](CO)NC(=O)[C@@H](NC(=O)[C@](C)(Cc1ccccc1)NC(=O)[C@H](CO)NC(=O)CNC(=O)[C@H](CCC(=O)O)NC(=O)C(C)(C)NC(=O)[C@@H](N)Cc1c[nH]cn1)[C@@H](C)O)C(C)C)C(C)C)C(=O)N[C@@H](C)C(=O)N[C@@](C)(Cc1ccccc1)C(=O)N[C@H](C(=O)N[C@H](C(=O)N[C@@](C)(CCCCN)C(=O)NCC(=O)NCC(N)=O)C(C)C)C(C)C [compound 10] (H-H[Aib]EGS[αMeF]TSDVSS[αMeF]VEGEAA[αMeK]E[αMeF]IA[αMeF]VV[αMeK]GG-NH2)	90	–	–

The remaining compounds from weak to strong by EC50 [1], led by results:

EC50 [1] [pM]	pEC50 (cAMP activity)	EC50 (Table 11, tris-lipidated peptides, read-out: Primary assay EC50 Mean pM GLP-1R) [pM]	Structure (SMILES)
17	–	–	CC[C@H](C)[C@H](NC(=O)[C@](C)(Cc1ccccc1)NC(=O)[C@H](CCC(=O)O)NC(=O)[C@](C)(CCCCN)NC(=O)[C@H](C)NC(=O)[C@H](CCCCNC(=O)COCCOCCNC(=O)COCCOCCNC(=O)CC[C@H](NC(=O)CCCCCCCCCCCCCCCCC(=O)O)C(=O)O)NC(=O)[C@H](CCC(=O)O)NC(=O)CNC(=O)[C@H](CCC(=O)O)NC(=O)[C@H](CC(C)C)NC(=O)[C@](C)(Cc1ccccc1)NC(=O)[C@H](CO)NC(=O)[C@](C)(CO)NC(=O)[C@@H](NC(=O)[C@H](CC(=O)O)NC(=O)[C@H](CO)NC(=O)[C@@H](NC(=O)[C@](C)(Cc1ccccc1)NC(=O)[C@H](CO)NC(=O)CNC(=O)[C@H](CCC(=O)O)NC(=O)C(C)(C)NC(=O)[C@@H](N)Cc1c[nH]cn1)[C@@H](C)O)C(C)C)C(=O)N[C@@H](C)C(=O)N[C@@](C)(Cc1ccccc1)C(=O)N[C@H](C(=O)N[C@H](C(=O)N[C@@](C)(CCCCN)C(=O)NCC(=O)NCC(N)=O)C(C)C)C(C)C [compound 111] (H-H[Aib]EGS[αMeF]TSDV[αMeS]S[αMeF]LEGEK([AEEA-AEEA-γGlu-C18 diacid])A[αMeK]E[αMeF]IA[αMeF]VV[αMeK]GG-NH2; N-terminus assumed)
15	–	–	CC[C@H](C)[C@H](NC(=O)[C@](C)(Cc1ccccc1)NC(=O)[C@H](CCC(=O)O)NC(=O)[C@](C)(CCCCN)NC(=O)[C@H](C)NC(=O)[C@H](C)NC(=O)[C@H](CCC(=O)O)NC(=O)CNC(=O)[C@H](CCC(=O)O)NC(=O)[C@H](CC(C)C)NC(=O)[C@](C)(Cc1ccccc1)NC(=O)[C@H](CO)NC(=O)[C@](C)(CO)NC(=O)[C@@H](NC(=O)[C@H](CC(=O)O)NC(=O)[C@H](CO)NC(=O)[C@@H](NC(=O)[C@](C)(Cc1ccccc1)NC(=O)[C@H](CO)NC(=O)CNC(=O)[C@H](CCC(=O)O)NC(=O)C(C)(C)NC(=O)[C@@H](N)Cc1c[nH]cn1)[C@@H](C)O)C(C)C)C(=O)N[C@@H](C)C(=O)N[C@@](C)(Cc1ccccc1)C(=O)N[C@H](C(=O)N[C@H](C(=O)N[C@@](C)(CCCCN)C(=O)N[C@@H](CCCCNC(=O)COCCOCCNC(=O)COCCOCCNC(=O)CC[C@H](NC(=O)CCCCCCCCCCCCCCCCC(=O)O)C(=O)O)C(=O)NCC(N)=O)C(C)C)C(C)C [compound 100] (H-H[Aib]EGS[αMeF]TSDV[αMeS]S[αMeF]LEGEAA[αMeK]E[αMeF]IA[αMeF]VV[αMeK]K([AEEA-AEEA-γGlu-C18 diacid])G-NH2; N-terminus assumed)
11.5	–	–	CCCCCCCCCCCC(=O)N[C@@H](CCC(=O)N[C@@H](CCC(=O)NCCCC[C@H](NC(=O)[C@H](C)NC(=O)[C@H](C)NC(=O)[C@H](CCC(=O)O)NC(=O)CNC(=O)[C@H](CCC(=O)O)NC(=O)[C@H](CC(C)C)NC(=O)[C@](C)(Cc1ccccc1)NC(=O)[C@H](CO)NC(=O)[C@](C)(CO)NC(=O)[C@@H](NC(=O)[C@H](CC(=O)O)NC(=O)[C@H](CO)NC(=O)[C@@H](NC(=O)[C@](C)(Cc1ccccc1)NC(=O)[C@H](CO)NC(=O)CNC(=O)[C@H](CCC(=O)O)NC(=O)C(C)(C)NC(=O)[C@@H](N)Cc1c[nH]cn1)[C@@H](C)O)C(C)C)C(=O)N[C@@H](CCC(=O)O)C(=O)N[C@@](C)(Cc1ccccc1)C(=O)N[C@H](C(=O)N[C@@H](C)C(=O)N[C@@](C)(Cc1ccccc1)C(=O)N[C@H](C(=O)N[C@H](C(=O)N[C@@](C)(CCCCN)C(=O)NCC(=O)NCC(N)=O)C(C)C)C(C)C)[C@@H](C)CC)C(=O)O)C(=O)O [compound 129]
8	11.09	–	CCCCCCCCCCCCCCCC(=O)N[C@@H](CCC(=O)NCCCC[C@H](NC(=O)[C@H](CCC(=O)O)NC(=O)[C@H](CC(C)C)NC(=O)[C@](C)(Cc1ccccc1)NC(=O)[C@H](CO)NC(=O)[C@](C)(CO)NC(=O)[C@@H](NC(=O)[C@H](CC(=O)O)NC(=O)[C@H](CO)NC(=O)[C@@H](NC(=O)[C@](C)(Cc1ccccc1)NC(=O)[C@H](CO)NC(=O)CNC(=O)[C@H](CCC(=O)O)NC(=O)C(C)(C)NC(=O)[C@@H](N)Cc1c[nH]cn1)[C@@H](C)O)C(C)C)C(=O)N[C@@H](CCC(=O)O)C(=O)N[C@@H](C)C(=O)N[C@@H](C)C(=O)N[C@@](C)(CCCCN)C(=O)N[C@@H](CCC(=O)O)C(=O)N[C@@](C)(Cc1ccccc1)C(=O)N[C@H](C(=O)N[C@@H](C)C(=O)N[C@@](C)(Cc1ccccc1)C(=O)N[C@H](C(=O)N[C@H](C(=O)N[C@@](C)(CCCCN)C(=O)NCC(=O)NCC(N)=O)C(C)C)C(C)C)[C@@H](C)CC)C(=O)O [compound 84] (H-H[Aib]EGS[αMeF]TSDV[αMeS]S[αMeF]LEK([γGlu-Palmitoyl])EAA[αMeK]E[αMeF]IA[αMeF]VV[αMeK]GG-NH2; N-terminus assumed)
